We go through 4 compounds from patent US20060160810A1, “2-Alkoxyphenyl substituted imidazotriazinones” (priority 2001, published 2006).

As a reminder, the IC50 is the concentration that inhibits the measured activity by half.

For the test, the target named is T1, human recombinant PDE5 (Homo sapiens, UniProt O76074).
T1 construct: made in house
Briefly: Phosphodiesterase [3H] cGMP-SPA enzyme assay (inhibition of PDE5 in vitro). The following applies: human recombinant PDE5 expressed in a bacculovirus system; substance concentration at which the reaction rate is reduced by 50%; read-out: PDE V IC50. In kind it is biochemical. The protocol:
To test the inhibiting action, the “Phosphodiesterase [^3H] cGMP-SPA enzyme assay” from Amersham Life Science was used. The test was carried out according to the manufacturer's test protocol. Use was made of human recombinant PDE5 which was expressed in a bacculovirus system. The substance concentration at which the reaction rate is reduced by 50% was measured.

For the compound `CCCc1nc(C)c2c(=O)[nH]c(-c3cc(S(=O)(=O)N4CCNCC4)ccc3OCC)nn12` [Example 1, 2-[2-Ethoxy-5-(1-piperazinylsulphonyl)phenyl]-5-methyl-7-propylimidazo-[5,1-f]-1,2,4-triazin-4(3H)-one], the IC50 came to 4.2 nM.

Regarding `CCCc1nc(C)c2c(=O)[nH]c(-c3cc(S(=O)(=O)N4CC[N+]([O-])(CC)CC4)ccc3OCC)nn12` [Example 2, 2-{2-Ethoxy-5-[(4-ethyl-4-hydroxy-4λ^5-piperazin-1-yl)sulphonyl]phenyl}-5-methyl-7-propylimidazo[5,1-f]-1,2,4-triazin-4(3H)-one], the IC50 is 19 nM.

Regarding `CCCc1nc(C)c2c(=O)[nH]c(-c3cc(S(=O)(=O)NCCNCC)ccc3OCC)nn12` [Example 3, 4-Ethoxy-N-[2-(ethylamino)ethyl]-3-(5-methyl-4-oxo-7-propyl-3,4-dihydroimidazo[5,1-f]-1,2,4-triazin-2-yl)benzenesulphonamide], the IC50 was found to be 19 nM.

Consider `CCCc1nc(C)c2c(=O)[nH]c(-c3cc(S(=O)(=O)NCCN)ccc3OCC)nn12` [Example 4, N-(2-aminoethyl)-4-ethoxy-3-(5-methyl-4-oxo-7-propyl-3,4-dihydroimidazo[5,1-f]-1,2,4-triazin-2-yl)benzenesulphonamide], for which the IC50 is 2.4 nM.
